Among the data in ChEMBL document CHEMBL6153025, “Multidrug-resistant bacteria quorum-sensing inhibitors: A particular focus on Pseudomonasaeruginosa” (Eur J Med Chem, 2025) are Activity, IC50 and MIC values, retold here.

In assay [1] the test system is Pseudomonas aeruginosa. Briefly: Antibiofilm activity against Pseudomonas aeruginosa PAO1 assessed as reduction in biofilm formation at 16 ug/ml incubated for 2 to 4 hrs by crystal violet staining based analysis relative to control. The class given is functional. To be noted: dose 16 µg/ml; time 2-4 hrs. Set-up: scale not given: the % may be the effect or the level left.

The subject of assay [2] is Pseudomonas aeruginosa. Briefly: Antibiofilm activity against Pseudomonas aeruginosa PA21 assessed as reduction in biofilm formation at 1/2 sub-MIC doses incubated for 24 hrs by crystal violet staining based analysis relative to control. The class given is functional. Set-up: scale not given: the % may be the effect or the level left.
The subject of assay [3] is Pseudomonas aeruginosa. Briefly: Antibiofilm activity against Pseudomonas aeruginosa PA22 assessed as reduction in biofilm formation at 1/2 sub-MIC doses incubated for 24 hrs by crystal violet staining based analysis relative to control. The class given is functional. Set-up: scale not given: the % may be the effect or the level left.
For assay [4], the system named is Pseudomonas aeruginosa. The experiment in a line: Antibiofilm activity against Pseudomonas aeruginosa PA23 assessed as reduction in biofilm formation at 1/2 sub-MIC doses incubated for 24 hrs by crystal violet staining based analysis relative to control. The class given is functional. Set-up: scale not given: the % may be the effect or the level left.
For assay [5], the system named is Pseudomonas aeruginosa. Briefly: Antibiofilm activity against Pseudomonas aeruginosa PA24 assessed as reduction in biofilm formation at 1/2 sub-MIC doses incubated for 24 hrs by crystal violet staining based analysis relative to control. More on the design: scale not given: the % may be the effect or the level left. The class given is functional.
Assay [6] deals with Pseudomonas aeruginosa. Briefly: Antibiofilm activity against Pseudomonas aeruginosa PAO1 assessed as reduction in biofilm formation at 1/2 sub-MIC doses incubated for 24 hrs by crystal violet staining based analysis relative to control. Set-up: scale not given: the % may be the effect or the level left. The class given is functional.
Assay [7] deals with Pseudomonas aeruginosa. Briefly: Antibiofilm activity against Pseudomonas aeruginosa PA14 assessed as reduction in biofilm formation at 1/2 sub-MIC doses incubated for 24 hrs by crystal violet staining based analysis relative to control. Set-up: scale not given: the % may be the effect or the level left. The class given is functional.
For assay [8], the system named is Pseudomonas aeruginosa. The experiment in a line: Antibiofilm activity against Pseudomonas aeruginosa PA21 assessed as reduction in biofilm formation at 1/4 sub-MIC doses incubated for 24 hrs by crystal violet staining based analysis relative to control. The class given is functional. More on the design: scale not given: the % may be the effect or the level left.

Assay [9] deals with Pseudomonas aeruginosa. The experiment in a line: Antibiofilm activity against Pseudomonas aeruginosa PA22 assessed as reduction in biofilm formation at 1/4 sub-MIC doses incubated for 24 hrs by crystal violet staining based analysis relative to control. The class given is functional. More on the design: scale not given: the % may be the effect or the level left.
In assay [10] the test system is Pseudomonas aeruginosa. The experiment in a line: Antibiofilm activity against Pseudomonas aeruginosa PA23 assessed as reduction in biofilm formation at 1/4 sub-MIC doses incubated for 24 hrs by crystal violet staining based analysis relative to control. The class given is functional. More on the design: scale not given: the % may be the effect or the level left.

Assay [11] concerns Pseudomonas aeruginosa. The experiment in a line: Antibiofilm activity against Pseudomonas aeruginosa PA24 assessed as reduction in biofilm formation at 1/4 sub-MIC doses incubated for 24 hrs by crystal violet staining based analysis relative to control. The class given is functional. More on the design: scale not given: the % may be the effect or the level left.
The test system of assay [12] is Pseudomonas aeruginosa. Briefly: Antibiofilm activity against Pseudomonas aeruginosa PAO1 assessed as reduction in biofilm formation at 1/4 sub-MIC doses incubated for 24 hrs by crystal violet staining based analysis relative to control. The class given is functional. More on the design: scale not given: the % may be the effect or the level left.
The test system of assay [13] is Pseudomonas aeruginosa. The experiment in a line: Antibiofilm activity against Pseudomonas aeruginosa PA14 assessed as reduction in biofilm formation at 1/4 sub-MIC doses incubated for 24 hrs by crystal violet staining based analysis relative to control. The class given is functional. Set-up: scale not given: the % may be the effect or the level left.
Assay [14] concerns Pseudomonas aeruginosa. Briefly: Antivirulence activity against Pseudomonas aeruginosa PA21 assessed as reduction in protease production incubated for 1 hr by absorbance based analysis relative to control. The class given is functional. More on the design: scale not given: the % may be the effect or the level left.
The test system of assay [15] is Pseudomonas aeruginosa. The experiment in a line: Antivirulence activity against Pseudomonas aeruginosa PA22 assessed as reduction in protease production incubated for 1 hr by absorbance based analysis relative to control. The class given is functional. Set-up: scale not given: the % may be the effect or the level left.
Assay [16] has as its system Pseudomonas aeruginosa. Briefly: Antivirulence activity against Pseudomonas aeruginosa PA23 assessed as reduction in protease production incubated for 1 hr by absorbance based analysis relative to control. The class given is functional. Set-up: scale not given: the % may be the effect or the level left.
In assay [17] the test system is Pseudomonas aeruginosa. Briefly: Antivirulence activity against Pseudomonas aeruginosa PA24 assessed as reduction in protease production incubated for 1 hr by absorbance based analysis relative to control. The class given is functional. More on the design: scale not given: the % may be the effect or the level left.
For assay [18], the system named is Pseudomonas aeruginosa. The experiment in a line: Antivirulence activity against Pseudomonas aeruginosa PAO1 assessed as reduction in protease production incubated for 1 hr by absorbance based analysis relative to control. The class given is functional. More on the design: scale not given: the % may be the effect or the level left.
Assay [19] concerns Pseudomonas aeruginosa. Briefly: Antivirulence activity against Pseudomonas aeruginosa PA14 assessed as reduction in protease production incubated for 1 hr by absorbance based analysis relative to control. The class given is functional. More on the design: scale not given: the % may be the effect or the level left.
Assay [20] has as its system Pseudomonas aeruginosa. Briefly: Antivirulence activity against Pseudomonas aeruginosa PA14 assessed as reduction in pyocyanin production incubated for 1 hr by absorbance based analysis relative to control. The class given is functional. More on the design: scale not given: the % may be the effect or the level left.
In assay [21] the test system is Pseudomonas aeruginosa. The experiment in a line: Antivirulence activity against Pseudomonas aeruginosa PAO1 assessed as reduction in pyocyanin production incubated for 1 hr by absorbance based analysis relative to control. The class given is functional. Set-up: scale not given: the % may be the effect or the level left.
Assay [22] deals with Pseudomonas aeruginosa. Briefly: Antivirulence activity against Pseudomonas aeruginosa PA24 assessed as reduction in pyocyanin production incubated for 1 hr by absorbance based analysis relative to control. The class given is functional. Set-up: scale not given: the % may be the effect or the level left.
For assay [23], the system named is Pseudomonas aeruginosa. Briefly: Antivirulence activity against Pseudomonas aeruginosa PA23 assessed as reduction in pyocyanin production incubated for 1 hr by absorbance based analysis relative to control. More on the design: scale not given: the % may be the effect or the level left. The class given is functional.
The test system of assay [24] is Pseudomonas aeruginosa. The experiment in a line: Antivirulence activity against Pseudomonas aeruginosa PA22 assessed as reduction in pyocyanin production incubated for 1 hr by absorbance based analysis relative to control. The class given is functional. Set-up: scale not given: the % may be the effect or the level left.
In assay [25] the test system is Pseudomonas aeruginosa. Briefly: Antivirulence activity against Pseudomonas aeruginosa PA21 assessed as reduction in pyocyanin production incubated for 1 hr by absorbance based analysis relative to control. Set-up: scale not given: the % may be the effect or the level left. The class given is functional.
Assay [26] concerns Pseudomonas aeruginosa. Briefly: Antivirulence activity against Pseudomonas aeruginosa PA21 assessed as reduction in hemolysin activity incubated for 1 hr by absorbance based analysis relative to control. More on the design: scale not given: the % may be the effect or the level left. The class given is functional.
Assay [27] relates to Pseudomonas aeruginosa. Briefly: Antivirulence activity against Pseudomonas aeruginosa PA22 assessed as reduction in hemolysin activity incubated for 1 hr by absorbance based analysis relative to control. The class given is functional. More on the design: scale not given: the % may be the effect or the level left.
Assay [28] concerns Pseudomonas aeruginosa. The experiment in a line: Antivirulence activity against Pseudomonas aeruginosa PA23 assessed as reduction in hemolysin activity incubated for 1 hr by absorbance based analysis relative to control. The class given is functional. More on the design: scale not given: the % may be the effect or the level left.
The test system of assay [29] is Pseudomonas aeruginosa. Briefly: Antivirulence activity against Pseudomonas aeruginosa PA24 assessed as reduction in hemolysin activity incubated for 1 hr by absorbance based analysis relative to control. More on the design: scale not given: the % may be the effect or the level left. The class given is functional.
The test system of assay [30] is Pseudomonas aeruginosa. The experiment in a line: Antivirulence activity against Pseudomonas aeruginosa PAO1 assessed as reduction in hemolysin activity incubated for 1 hr by absorbance based analysis relative to control. The class given is functional. Set-up: scale not given: the % may be the effect or the level left.
The test system of assay [31] is Pseudomonas aeruginosa. Briefly: Antivirulence activity against Pseudomonas aeruginosa PA14 assessed as reduction in hemolysin activity incubated for 1 hr by absorbance based analysis relative to control. The class given is functional. Set-up: scale not given: the % may be the effect or the level left.
For assay [32], the system named is Pseudomonas aeruginosa. Briefly: Antibiofilm activity against Pseudomonas aeruginosa PAO1. The class given is functional, organism-based.
Assay [33] deals with Pseudomonas aeruginosa. Briefly: Antibacterial activity against Pseudomonas aeruginosa PAO1 assessed as bacterial growth inhibition incubated for 24 hrs by micro-broth dilution method. The class given is functional. (In broth dilution the organism is exposed to a series of concentrations in liquid medium.)
In assay [34] the test system is Pseudomonas aeruginosa. Briefly: Downregulation of lasR mRNA expression level in Pseudomonas aeruginosa PAO1 at 200 uM by RT-PCR analysis relative to control. The class given is functional.
Assay [35] concerns Pseudomonas aeruginosa. The experiment in a line: Downregulation of lasI mRNA expression level in Pseudomonas aeruginosa PAO1 at 200 uM by RT-PCR analysis relative to control. The class given is functional.
Assay [36] deals with Pseudomonas aeruginosa. The experiment in a line: Downregulation of rhlR mRNA expression level in Pseudomonas aeruginosa PAO1 at 200 uM by RT-PCR analysis relative to control. The class given is functional.
The subject of assay [37] is Pseudomonas aeruginosa. Briefly: Downregulation of rhlI mRNA expression level in Pseudomonas aeruginosa PAO1 at 200 uM by RT-PCR analysis relative to control. The class given is functional.
Assay [38] relates to Pseudomonas aeruginosa. Briefly: Antibacterial activity against Pseudomonas aeruginosa PAO1 assessed as bacterial growth inhibition after 20 hrs by liquid microdilution method. The class given is functional, organism-based. To be noted: PAO1, 20 h.
In assay [39] the test system is Pseudomonas aeruginosa. The experiment in a line: Antivirulence activity against Pseudomonas aeruginosa PAO1 assessed as reduction in pyocyanin production. The class given is functional, organism-based.
Assay [40] relates to Pseudomonas aeruginosa. Briefly: Antivirulence activity against Pseudomonas aeruginosa PAO1 assessed as reduction in elastase production. The class given is functional, organism-based.
Assay [41] concerns Pseudomonas aeruginosa. Briefly: Antivirulence activity against Pseudomonas aeruginosa PAO1 assessed as reduction in protease production. The class given is functional, organism-based.

The structures appear in SMILES notation. Converted amounts (≈) assume the structure as drawn.

For `COC(=O)c1cc(O)c(O)c(O)c1` [GALLIC ACID METHYL ESTER], the Activity with Pseudomonas aeruginosa [1] is on record as 63%; with Pseudomonas aeruginosa [2] it was 83.3%; in the assay with Pseudomonas aeruginosa [3], 82.2%; in the assay on Pseudomonas aeruginosa [4] it was 83.8%; in the assay on Pseudomonas aeruginosa [5] it was 83.7%; with Pseudomonas aeruginosa [6] it was 83%. In addition, the Activity came to 81.6% in the assay with Pseudomonas aeruginosa [7]; 77.8% in the assay with Pseudomonas aeruginosa [8]; 81.5% with Pseudomonas aeruginosa [9]; 77.9% with Pseudomonas aeruginosa [10]; 78.1% in the assay on Pseudomonas aeruginosa [11]; 77.6% with Pseudomonas aeruginosa [12]. Moreover, the Activity is on record as 78.6% in the assay with Pseudomonas aeruginosa [13]; 53.6% with Pseudomonas aeruginosa [14]; 47.3% in the assay with Pseudomonas aeruginosa [15]; 27.6% with Pseudomonas aeruginosa [16]; 42.4% in the assay on Pseudomonas aeruginosa [17]; 40.3% in the assay on Pseudomonas aeruginosa [18]. Moreover, the Activity in the assay on Pseudomonas aeruginosa [19] was determined as 40.1%; with Pseudomonas aeruginosa [20], 66.5%; in the assay with Pseudomonas aeruginosa [21], 68.1%; in the assay on Pseudomonas aeruginosa [22] it was 78.7%; in the assay on Pseudomonas aeruginosa [23] it was 79.6%; in the assay with Pseudomonas aeruginosa [24], 80.9%. For the same compound, the Activity in the assay with Pseudomonas aeruginosa [25] was determined as 87.3%; in the assay on Pseudomonas aeruginosa [26], 63.2%; in the assay with Pseudomonas aeruginosa [27], 57.8%; with Pseudomonas aeruginosa [28], 49.8%; with Pseudomonas aeruginosa [29] it was 55.7%; in the assay with Pseudomonas aeruginosa [30], 63.9%. Further, the Activity with Pseudomonas aeruginosa [31] was 60.5%.
What is called IC50 is the concentration that gives 50% inhibition. As usually defined, the MIC is the least concentration at which growth counts as inhibited. Consider `O=c1c(O)c(-c2ccc(O)c(O)c2)oc2cc(O)cc(O)c12` [QUERCETIN], for which the IC50 in the assay on Pseudomonas aeruginosa [32] stood at 100 µM. The MIC in the assay with Pseudomonas aeruginosa [33] is 1 µM (≈ 0.302 µg/mL). Moreover, the Activity in the assay on Pseudomonas aeruginosa [34], in the assay on Pseudomonas aeruginosa [35], in the assay with Pseudomonas aeruginosa [36] and with Pseudomonas aeruginosa [37] was 85% throughout.
`COc1c(O)cc(O)c2c(=O)cc(-c3ccccc3)oc12` [WOGONIN]: the IC50 with Pseudomonas aeruginosa [38], in the assay on Pseudomonas aeruginosa [39], in the assay with Pseudomonas aeruginosa [40] and in the assay on Pseudomonas aeruginosa [41] was 15 µg/mL (≈ 52.8 µM) each time.
